In patent US20230203060A1 (GENFLEET THERAPEUTICS (SHANGHAI) INC., priority 2020, published 2023) one finds IC50 data, which are given here for 24 compounds.

The test system of experiment [1] is KRAS G12C mutant MIA PaCa-2 cells. In words: Cell proliferation inhibition experiment, 3D spheroid, CellTiter-Glo, MIA PaCa-2. The note with it: Homo sapiens, MIA PaCa-2, 120 h, 3D cell model in 384-well spheroid plate, 5 days, CellTiter-Glo; read-out: MIA-PaCa2 IC50. Type of experiment: cell-based, human. The procedure, abridged: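 Luminescent ATP read-out (CellTiter-Glo) after 5-day compound treatment of spheroids formed overnight from 200 MIA PaCa-2 cells/well; compounds in 3.16-fold series, 0.1% DMSO final. IC50 derived by four-parameter fit of percent inhibition, normalized to DMSO control and medium blank.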
(In ATP-based viability assays light output follows the ATP content of the culture.)

In experiment [2] the test system is A549 cells (KRAS G12S mutant). In words: Cell proliferation inhibition experiment, 3D spheroid, CellTiter-Glo, A549. The note with it: Homo sapiens, A549, 120 h, A549 (KRAS G12S mutant) 3D spheroid, 5 days with compound, CellTiter-Glo; read-out: A549 IC50. It counts as cell-based, human. In a few lines: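 CellTiter-Glo luminescence after 5 days' compound treatment (3.16-fold series, 0.1% DMSO) of overnight-formed spheroids in 2% FBS medium: H358 seeded at 800 cells/well in RPMI-1640, A549 at 400 cells/well in F-12K. IC50 derived by four-parameter fit of inhibition normalized to DMSO control and blank.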

SMILES strings stand for the structures. Where only a bound is given, the exact number is not on record here.

As for `C=CC(=O)N1CCN2C(=O)c3c(N4CC[C@H](OC)C4(C)C)nc(-c4c(O)cccc4F)c(Cl)c3OC[C@H]2C1` (single isomer, unassigned) [Z241a-1], the results for the IC50 in experiment [1] and in experiment [2] were 4.3 nM and 9550 nM, respectively.
On the same counts, the results for `C=CC(=O)N1CCN2C(=O)c3c(N4C[C@@](C)(O)CC4(C)C)nc(-c4c(O)cccc4F)c(F)c3OC[C@H]2C1` (single isomer, unassigned) [Z256b-1] are 6.2 nM and 10200 nM.
As for `C=CC(=O)N1CCN2C(=O)c3c(N4C[C@H](OC)CC4(C)C)nc(-c4c(O)cccc4F)c(F)c3OC[C@H]2C1` (single isomer, unassigned) [Z256a-2], the IC50 in experiment [1] was determined as 3.8 nM; in experiment [2], 9270 nM.
For `C=CC(=O)N1CCN2C(=O)c3c(N4C[C@@H](OC)C[C@@H]4C)nc(-c4c(O)cccc4F)c(F)c3OC[C@H]2C1` [Z359-1, (6aR)-8-actyloyl-4-fluoro-3-(2-fluoro-6-hydroxyphenyl)-1-((2S,4S)-4-methoxy-2-methylpyrrolidin-1-yl)-6,6a,7,8,9,10-hexahydro-12H-pyrazino[2,1-c]pyrido[3,4-f][1,4]oxazepin-12-one], in that order: 17.6 nM and 12200 nM.
For `C=CC(=O)N1CCN2C(=O)c3c(N4CC(C#N)CC4(C)C)nc(-c4c(O)cccc4F)c(F)c3OC[C@H]2C1` (stereo partly drawn) [Z335], in that order: 18 nM and more than 30000 nM.
On to `C=CC(=O)N1CCN2C(=O)c3c(N4CCC(N(C)C)C4(C)C)nc(-c4c(O)cccc4F)c(Cl)c3OC[C@H]2C1` (stereo partly drawn) [Z334, (6aR)-8-acryloyl-4-chloro-1-(3-(dimethylamino)-2,2-dimethylpyrrolidin-1-yl)-3-(2-fluoro-6-hydroxyphenyl)-6,6a,7,8,9,10-hexahydro-12H-pyrazino[2,1-c]pyrido[3,4-f][1,4]oxazepin-12-one], for which the IC50 in experiment [1] stood at 11 nM; in experiment [2] it was 8550 nM.
For `C=CC(=O)N1CCN2C(=O)c3c(N4CCCC4(C)C)nc(-c4c(O)cccc4F)c(Cl)c3OC[C@H]2C1` [Z22, (6aR)-8-acryloyl-4-chloro-1-(2,2-dimethylpyrrolidin-1-yl)-3-(2-fluoro-6-hydroxyphenyl)-6,6a,7,8,9,10-hexahydro-12H-pyrazino[2,1-c]pyrido[3,4-f][1,4]oxazepin-12-one], in that order: 7 nM and more than 30000 nM.
For `C=CC(=O)N1CCN2C(=O)c3c(N4C[C@@H](N5CCOCC5)CC4(C)C)nc(-c4c(O)cccc4F)c(Cl)c3OC[C@H]2C1` (single isomer, unassigned) [Z297-2], in that order: 3 nM and 8700 nM.
`C=CC(=O)N1CCN2C(=O)c3c(N4CCOCC4)nc(-c4nc(N)cc(C)c4C(F)(F)F)c(Cl)c3OC[C@H]2C1` [Z314]: the IC50 is 9.9 nM in experiment [1] and more than 30000 nM in experiment [2].
As to `C=CC(=O)N1CCN2C(=O)c3c(N4C[C@@H](O)CC4(C)C)nc(-c4c(F)ccc(Cl)c4O)c(F)c3OC[C@H]2C1` (single isomer, unassigned) [Z341-1], the figures for the IC50 in experiment [1] and in experiment [2] were 24 nM and 11100 nM, respectively.
`C=CC(=O)N1CCN2C(=O)c3c(N4CCC[C@@]4(C)CO)nc(-c4c(O)cccc4F)c(Cl)c3OC[C@H]2C1` [Z279-2]: the IC50 in experiment [1] was 4.9 nM; in experiment [2], more than 30000 nM.
For `C=CC(=O)N1CCN2C(=O)c3c(N4C[C@@H](OC)CC4(C)C)nc(-c4c(O)cccc4F)c(Cl)c3OC[C@H]2C1` (single isomer, unassigned) [Z244-1], in that order: 8 nM and 2900 nM.
For the compound `C=CC(=O)N1CCN2C(=O)c3c(N4C[C@@H](O)CC4(C)C)nc(-c4c(O)cccc4F)c(F)c3OC[C@H]2C1` (single isomer, unassigned) [Z256-1], the IC50 in experiment [1] is 5 nM; in experiment [2] it was 12100 nM.
On the same counts, the results for `C=CC(=O)N1CCN2C(=O)c3c(N4CCO[C@](C)(CO)C4)nc(-c4c(O)cccc4F)c(Cl)c3OC[C@H]2C1` (single isomer, unassigned) [Z333-1] are 30 nM and more than 30000 nM.
Turning to `C=CC(=O)N1CCN2C(=O)c3c(N4C[C@@H](N(C)C)C[C@@H]4C)nc(-c4c(O)cccc4F)c(Cl)c3OC[C@H]2C1` [Z237-2, (6aR)-8-acryloyl-4-chloro-1-((2S,4S)-4-(dimethylamino)-2-methylpyrrolidin-1-yl)-3-(2-fluoro-6-hydroxyphenyl)-6,6a,7,8,9,10-hexahydro-12H-pyrazino[2,1-c]pyrido[3,4-f][1,4]oxazepin-12-one], the IC50 in experiment [1] is 7.7 nM; in experiment [2], 5530 nM.
In the case of `C=CC(=O)N1CCN2C(=O)c3c(N4CCC(OC)C4(C)C)nc(-c4c(O)cccc4F)c(Cl)c3OC[C@H]2C1` (stereo partly drawn) [Z241a, (6aR)-8-acryloyl-4-chloro-3-(2-fluoro-6-hydroxyphenyl)-1-(3-methoxy-2,2-dimethylpyrrolidin-1-yl)-6,6a,7,8,9,10-hexahydro-12H-pyrazino[2,1-c]pyrido[3,4-f][1,4]oxazepin-12-one], the IC50 in experiment [1] is 2.4 nM; in experiment [2], 4940 nM.
For `C=CC(=O)N1CCN2C(=O)c3c(N4CC[C@@H](OC)C4(C)C)nc(-c4c(O)cccc4F)c(F)c3OC[C@H]2C1` (single isomer, unassigned) [Z327-1], in that order: 7.1 nM and 7930 nM.
For `C=CC(=O)N1CCN2C(=O)c3c(N4C[C@H](N(C)C)CC4(C)C)nc(-c4c(O)cccc4F)c(Cl)c3OC[C@H]2C1` (single isomer, unassigned) [Z324-2], in that order: 6.1 nM and 4650 nM.
Consider `C=CC(=O)N1CCN2C(=O)c3c(N4CCN(CC)C(C)(C)C4)nc(-c4c(O)cccc4F)c(Cl)c3OC[C@H]2C1` [Z322, (6aR)-8-actyloyl-4-chloro-3-(2-fluoro-6-hydroxyphenyl)-1-(4-ethyl-3,3-dimethylpiperazin-1-yl)-6,6a,7,8,9,10-hexahydro-12H-pyrazino[2,1-c]pyrido[3,4-f][1,4]oxazepin-12-one], for which the IC50 in experiment [1] was found to be 6.3 nM; in experiment [2] it was 10700 nM.
In the case of `C=CC(=O)N1CCN2C(=O)c3c(N4CC[C@@H](N(C)C)C4(C)C)nc(-c4c(O)cccc4F)c(Cl)c3OC[C@H]2C1` (single isomer, unassigned) [Z360-1], the IC50 in experiment [1] was 19.6 nM; in experiment [2], 2530 nM.
On the same counts, the results for `C=CC(=O)N1CCN2C(=O)c3c(N4C[C@@](C)(O)CC4(C)C)nc(-c4c(O)cccc4F)c(Cl)c3OC[C@H]2C1` (single isomer, unassigned) [Z243-1] are 1.5 nM and 3100 nM.
As for `C=CC(=O)N1CCN2C(=O)c3c(N4CCN(C(C)=O)C[C@@H]4C)nc(-c4c(O)cccc4F)c(Cl)c3OC[C@H]2C1` [Z313-1], the results for the IC50 in experiment [1] and in experiment [2] were 2.6 nM and more than 30000 nM, respectively.
Consider `C=CC(=O)N1CCN2C(=O)c3c(N4CCN(S(C)(=O)=O)C[C@@H]4C)nc(-c4c(O)cccc4F)c(Cl)c3OC[C@H]2C1` [Z318-1, (6aR)-8-acryloyl-1-((S)-2-methyl-4-(methylsulfonyl)piperazin-1-yl)-4-chloro-3-(2-fluoro-6-hydroxyphenyl)-6,6a,7,8,9,10-hexahydro-12H-pyrazino[2,1-c]pyrido[3,4-f][1,4]oxazepin-12-one], for which the IC50 in experiment [1] stood at 10.9 nM; in experiment [2], 26300 nM.
Consider `C=CC(=O)N1CCN2C(=O)c3c(N4CCN(C(=O)CC)C[C@@H]4C)nc(-c4c(O)cccc4F)c(Cl)c3OC[C@H]2C1` [Z316-1, (6aR)-8-acryloyl-4-chloro-3-(2-fluoro-6-hydroxyphenyl)-1-((S)-2-methyl-4-propionylpiperazin-1-yl)-6,6a,7,8,9,10-hexahydro-12H-pyrazino[2,1-c]pyrido[3,4-f][1,4]oxazepin-12-one], for which the IC50 in experiment [1] is 2.2 nM; in experiment [2], more than 30000 nM.

A word on the IC50: it is the concentration needed to halve the response being measured.
